These results are taken from paper PMC12133982, “Predominant T-cell epitopes of SARS-CoV-2 restricted by multiple prevalent HLA-B and HLA-C allotypes in Northeast Asia” (Frontiers in Immunology, 2025).

One assay addresses HLA-B4601 (Homo sapiens, UniProt P01889, A329T/A93R/C349S/D201E/E100V/E187L/E204Q/E69M/E70A/I90K/K202T/N87E/R155S/R180W/S121R/S35A/S48A/V306I/V36M/Y140S). Put plainly: Competitive peptide binding assay, CIR-B4601. The following applies: for IC50: HMy2.CIR-B4601 cells, reference Cy5-[…], class from inhibition at 5 and 15 μM, flow cytometry MFI, read-out: Binding affinity with HLA-B4601; for inhibition at 5 µM: read-out: Inhibition % of Cy5-reference peptide binding, CIR-B4601, 5μM peptide; for inhibition at 15 µM: read-out: Inhibition % of Cy5-reference peptide binding, CIR-B4601, 15μM peptide. On the procedure:
(§1) Then, competitive peptide binding assays were performed.

In the next assay the target is HLA-B5801 (Homo sapiens, UniProt P01889, A329T/C349S/D201E/D98Y/E176V/E187L/E204Q/E69T/G107R/I218V/I90N/K202T/L105A/L119I/N104I/N87E/Q89R/Q94S/R106L/R155S/R180L/R86G/S101N/S121R/S35A/S48A/T118I/V127L/V306I/V36M/Y140S/Y91M). Put plainly: Competitive peptide binding assay, CIR-B5801. The note with it: HMy2.CIR-B5801 cells, reference Cy5-[…], class from inhibition at 5 and 15 μM, flow cytometry MFI; read-out: Binding affinity with HLA-B5801. The protocol: as §1
For orientation: A flow cytometer gives signals particle by particle.

For a further assay, the target named is HLA-B1502 (Homo sapiens, UniProt P01889, A329T/A93T/A95T/C349S/D201E/D98Y/E187L/E204Q/E69M/E70A/H137Y/K202T/L119I/Q94N/R155S/R180L/S121R/S35A/S48A/T118I/V306I/V36M/Y140S/Y91S). Put plainly: Competitive peptide binding assay, CIR-B1502. The note with it: HMy2.CIR-B1502 cells, reference Cy5-[…], class from inhibition at 5 and 15 μM, flow cytometry MFI; read-out: Binding affinity with HLA-B1502. On the procedure:
as §1

The next assay addresses HLA-B1301 (Homo sapiens, UniProt P01889, A65T/A93T/A95T/D138N/D201E/D98Y/E176V/E204Q/E69M/E70A/G107R/K202T/L105A/L119I/N104T/N87E/Q94N/R106L/R155S/R169L/R180L/S101N/S121R/S35A/S48T/T118I/V127L/V36M/Y140L/Y91S). The experiment in a line: Competitive peptide binding assay, CIR-B1301. The following applies: HMy2.CIR-B1301 cells, reference Cy5-[…], class from inhibition at 5 and 15 μM, flow cytometry MFI; read-out: Binding affinity with HLA-B1301. On the procedure:
as §1

A further assay concerns the target HLA-B1302 (Homo sapiens, UniProt P01889, A65T/A93T/A95T/D138N/D201E/D98Y/E176V/E204Q/E69M/E70A/G107R/K202T/L105A/L119W/N104T/N87E/Q94N/R106L/R155S/R169L/R180L/S101N/S121T/S35A/S48T/V127L/V36M/Y140L/Y91S). The experiment in a line: Competitive peptide binding assay, CIR-B1302. The following applies: HMy2.CIR-B1302 cells, reference Cy5-MMWYWGPSL, class from inhibition at 5 and 15 μM, flow cytometry MFI; read-out: Binding affinity with HLA-B1302. On the procedure: as §1

Another assay deals with HLA-B1501 (Homo sapiens, UniProt P01889, A329T/A93T/A95T/C349S/D201E/D98Y/E187L/E204Q/E69M/E70A/K202T/N87E/Q94N/R155S/R180W/S121R/S35A/S48A/V306I/V36M/Y140S/Y91S). Put plainly: Competitive peptide binding assay, CIR-B1501. The note with it: HMy2.CIR-B1501 cells, reference Cy5-[…], class from inhibition at 5 and 15 μM, flow cytometry MFI; read-out: Binding affinity with HLA-B1501. The protocol:
as §1

A further assay deals with HLA-B3501 (Homo sapiens, UniProt P01889, A329T/A93T/A95T/C349S/D201E/D98Y/E176V/E187L/E204Q/E69T/I218V/K202T/L119I/Q94N/R155S/R180L/S121R/S35A/S48A/T118I/V127L/V306I/V36M/Y140S/Y91F). The experiment in a line: Competitive peptide binding assay, CIR-B3501. The following applies: HMy2.CIR-B3501 cells, reference Cy5-[…], class from inhibition at 5 and 15 μM, flow cytometry MFI; read-out: Binding affinity with HLA-B3501. On the procedure: as §1

In the next assay the target is HLA-C0602 (Homo sapiens, UniProt P10321, A176E/A330V/C350S/L171W/L180W/L218V/M285V/M309V/M331V/N104K/P208H/Q277E/Q291P/R121W/S101N/S123Y/S297R/T329A/T363A/V319A/V328M). Put plainly: Competitive peptide binding assay, CIR-C0602.
The next assay concerns the target HLA-C0702 (Homo sapiens, UniProt P10321). The experiment in a line: Competitive peptide binding assay, CIR-C0702.

Peptide text beside a SMILES is read from it.

As usually defined, the inhibition is the percentage by which the read-out fell short of the control. Turning to `C[C@H](NC(=O)[C@H](CO)NC(=O)[C@H](CO)NC(=O)[C@@H](N)Cc1ccc(O)cc1)C(=O)N[C@@H](CC(N)=O)C(=O)N[C@@H](CC(N)=O)C(=O)N[C@@H](CS)C(=O)N[C@H](C(=O)N[C@@H](Cc1ccccc1)C(=O)O)[C@@H](C)O` [Epitope Y247] (H-YSSANNCTF-OH; N-terminus and C-terminus assumed), the IC50 on HLA-B4601 was 5 to 15 µM; at HLA-B5801, under 5 µM; on HLA-B1502 it was over 15 µM; on HLA-B1301 it was over 15 µM; on HLA-B1302, 5 to 15 µM; on HLA-B1501, over 15 µM. Also, on HLA-B3501, the IC50 was over 15 µM. Besides, the inhibition at 5 µM at HLA-B4601 worked out at 44.6%. Further, on HLA-B4601, the inhibition at 15 µM was 86.4%.
`CC(C)[C@H](NC(=O)CNC(=O)[C@H](Cc1c[nH]cn1)NC(=O)[C@@H]1CCCN1C(=O)[C@H](C)NC(=O)[C@H](CO)NC(=O)[C@H](CCC(N)=O)NC(=O)[C@@H]1CCCN1C(=O)[C@@H](N)Cc1ccccc1)C(=O)O` [Epitope Y281] (H-FPQSAPHGV-OH; N-terminus and C-terminus assumed): the IC50 at HLA-B1502 is over 15 µM; at HLA-B1301 it was over 15 µM; at HLA-B1302, over 15 µM; at HLA-B1501 it was 5 to 15 µM.
`C[C@H](NC(=O)[C@H](Cc1ccc(O)cc1)NC(=O)[C@H](C)NC(=O)[C@@H](N)Cc1ccccc1)C(=O)N[C@@H](CC(N)=O)C(=O)N[C@@H](CCCNC(=N)N)C(=O)N[C@@H](CC(N)=O)C(=O)N[C@@H](CCCNC(=N)N)C(=O)N[C@@H](Cc1ccccc1)C(=O)O` [Epitope Y49] (H-FAYANRNRF-OH; N-terminus and C-terminus assumed): the IC50 is 5 to 15 µM at HLA-B5801, over 15 µM at HLA-B1302, over 15 µM on HLA-B1501 and under 5 µM on HLA-B3501.
With `CC[C@H](C)[C@H](NC(=O)[C@H](CC(C)C)NC(=O)[C@@H](N)CCC(=O)O)C(=O)N[C@@H](CCCNC(=N)N)C(=O)N[C@@H](CCC(N)=O)C(=O)NCC(=O)N[C@H](C(=O)N[C@@H](CC(=O)O)C(=O)N[C@@H](Cc1ccc(O)cc1)C(=O)O)[C@@H](C)O` [Epitope Y162] (H-ELIRQGTDY-OH; N-terminus and C-terminus assumed), the IC50 is under 5 µM on HLA-B4601; 5 to 15 µM on HLA-B5801; 5 to 15 µM on HLA-B1502; over 15 µM on HLA-B1302; over 15 µM at HLA-B1501; over 15 µM on HLA-B3501.
Take `C[C@@H](O)[C@H](NC(=O)CNC(=O)[C@H](CCC(N)=O)NC(=O)[C@@H](N)CCCNC(=N)N)C(=O)N[C@@H](CC(=O)O)C(=O)N[C@@H](Cc1ccc(O)cc1)C(=O)N[C@@H](CCCCN)C(=O)N[C@@H](Cc1c[nH]cn1)C(=O)N[C@@H](Cc1c[nH]c2ccccc12)C(=O)O` [Epitope Y222] (H-RQGTDYKHW-OH; N-terminus and C-terminus assumed): the IC50 on HLA-B1302 is over 15 µM; on HLA-B1501, 5 to 15 µM.
Consider `CC[C@H](C)[C@H](NC(=O)[C@H](CO)NC(=O)[C@H](CCC(N)=O)NC(=O)[C@H](CO)NC(=O)[C@H](C)NC(=O)[C@@H](N)C(C)C)C(=O)N[C@H](C(=O)N[C@@H](C)C(=O)N[C@@H](Cc1ccc(O)cc1)C(=O)O)[C@@H](C)CC` [Epitope Y151] (H-VASQSIIAY-OH; N-terminus and C-terminus assumed), for which the IC50 on HLA-B5801 was over 15 µM; on HLA-B1302 it was under 5 µM; at HLA-B1501 it was over 15 µM; on HLA-B3501 it was under 5 µM.
Consider `CSCC[C@H](NC(=O)[C@H](CO)NC(=O)[C@H](CCCNC(=N)N)NC(=O)[C@@H](NC(=O)[C@H](CCCNC(=N)N)NC(=O)[C@H](C)NC(=O)[C@@H](N)Cc1ccccc1)[C@@H](C)O)C(=O)N[C@@H](Cc1c[nH]c2ccccc12)C(=O)N[C@@H](CO)C(=O)N[C@@H](Cc1ccccc1)C(=O)O` [Epitope Y47] (H-FARTRSMWSF-OH; N-terminus and C-terminus assumed), for which the IC50 at HLA-B4601 was over 15 µM; on HLA-B5801, over 15 µM; at HLA-B1502 it was under 5 µM; on HLA-B1302 it was over 15 µM; at HLA-B3501, under 5 µM.
With `CC[C@H](C)[C@H](NC(=O)[C@@H](NC(=O)[C@H](CCC(=O)O)NC(=O)[C@H](CCC(=O)O)NC(=O)[C@@H](N)Cc1c[nH]cn1)[C@@H](C)O)C(=O)N[C@@H](Cc1ccc(O)cc1)C(=O)N[C@@H](CC(N)=O)C(=O)N[C@@H](CC(C)C)C(=O)N[C@@H](CC(C)C)C(=O)O` [Epitope Y199] (H-HEETIYNLL-OH; N-terminus and C-terminus assumed), the IC50 is over 15 µM on HLA-B4601, 5 to 15 µM at HLA-B5801, 5 to 15 µM on HLA-B1302 and under 5 µM at HLA-B3501. Also, the inhibition at 5 µM at HLA-B4601 stood at 24.9%. Moreover, the inhibition at 15 µM at HLA-B4601 was determined as 44.1%.
In the case of `CC(C)[C@H](NC(=O)[C@@H](N)Cc1ccccc1)C(=O)N[C@@H](CO)C(=O)N[C@@H](CC(N)=O)C(=O)NCC(=O)N[C@H](C(=O)N[C@@H](Cc1c[nH]cn1)C(=O)N[C@@H](Cc1c[nH]c2ccccc12)C(=O)N[C@@H](Cc1ccccc1)C(=O)O)[C@@H](C)O` [Epitope Y250] (H-FVSNGTHWF-OH; N-terminus and C-terminus assumed), the IC50 at HLA-B1502, on HLA-B1302, at HLA-B1501 and at HLA-B3501 was over 15 µM throughout.
Consider `CC(C)C[C@H](N)C(=O)N1CCC[C@H]1C(=O)N[C@@H](CC(N)=O)C(=O)N[C@@H](CC(N)=O)C(=O)N[C@H](C(=O)N[C@@H](C)C(=O)N[C@@H](CO)C(=O)N[C@@H](Cc1c[nH]c2ccccc12)C(=O)N[C@@H](Cc1ccccc1)C(=O)O)[C@@H](C)O` [Epitope Y17] (H-LPNNTASWF-OH; N-terminus and C-terminus assumed), for which the IC50 on HLA-B5801 is over 15 µM; on HLA-B1302, over 15 µM; at HLA-B1501 it was over 15 µM; on HLA-B3501, under 5 µM.
As for `CC(C)C[C@H](NC(=O)[C@H](CC(=O)O)NC(=O)[C@H](CCC(N)=O)NC(=O)[C@@H](NC(=O)[C@@H](N)CO)[C@@H](C)O)C(=O)N[C@@H](Cc1ccccc1)C(=O)N[C@@H](CC(C)C)C(=O)N1CCC[C@H]1C(=O)N[C@@H](Cc1ccccc1)C(=O)O` [Epitope Y249] (H-STQDLFLPF-OH; N-terminus and C-terminus assumed), the IC50 on HLA-B1301 was over 15 µM; on HLA-B1302 it was over 15 µM; at HLA-B1501, 5 to 15 µM.
Regarding `CC[C@H](C)[C@H](NC(=O)[C@@H]1CCCN1C(=O)[C@@H](NC(=O)[C@H](Cc1c[nH]cn1)NC(=O)[C@H](CCCCN)NC(=O)[C@H](CO)NC(=O)[C@@H](N)Cc1ccc(O)cc1)[C@@H](C)O)C(=O)N[C@@H](CC(N)=O)C(=O)N[C@@H](CC(C)C)C(=O)O` [Epitope M127] (H-YSKHTPINL-OH; N-terminus and C-terminus assumed), the IC50 on HLA-C0602 and on HLA-C0702 was over 15 µM each time.
